Among the data in patent US11345681B1, “Inhibitors of fibroblast growth factor receptor kinases” (Kinnate Biopharma Inc., priority 2020, dated 2022) are IC50 values, retold here.

Where only a bound is given, the exact number is not on record here.

Chain of Wild type FGFR2 (P21802 22-821): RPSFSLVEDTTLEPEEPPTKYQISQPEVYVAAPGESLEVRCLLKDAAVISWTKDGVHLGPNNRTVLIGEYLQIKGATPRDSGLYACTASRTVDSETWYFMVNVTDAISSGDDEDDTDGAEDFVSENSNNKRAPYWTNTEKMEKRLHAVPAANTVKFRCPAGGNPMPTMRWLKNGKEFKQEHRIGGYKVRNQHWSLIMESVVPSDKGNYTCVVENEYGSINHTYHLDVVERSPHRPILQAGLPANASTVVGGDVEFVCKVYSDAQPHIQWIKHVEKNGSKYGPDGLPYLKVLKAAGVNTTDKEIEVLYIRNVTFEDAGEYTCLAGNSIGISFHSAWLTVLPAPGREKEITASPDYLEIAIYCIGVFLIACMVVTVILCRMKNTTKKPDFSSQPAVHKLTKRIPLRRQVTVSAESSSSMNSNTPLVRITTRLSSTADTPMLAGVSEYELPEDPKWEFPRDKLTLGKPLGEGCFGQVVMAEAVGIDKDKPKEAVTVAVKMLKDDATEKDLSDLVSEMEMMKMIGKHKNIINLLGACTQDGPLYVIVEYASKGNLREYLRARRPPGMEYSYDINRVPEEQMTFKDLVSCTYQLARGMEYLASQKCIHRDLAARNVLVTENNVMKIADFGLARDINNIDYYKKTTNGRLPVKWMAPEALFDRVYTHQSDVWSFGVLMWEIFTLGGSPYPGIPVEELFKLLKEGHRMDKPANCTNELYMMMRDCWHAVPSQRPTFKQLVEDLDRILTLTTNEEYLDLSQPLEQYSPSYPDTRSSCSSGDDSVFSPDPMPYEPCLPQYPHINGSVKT

The first assay concerns the target Wild type FGFR2 (Homo sapiens (Human), UniProt P21802). As to the kind of experiment: FGFR2 kinase assay (fluorescence-based microfluidic mobility shift assay). Type of assay: biochemical. The conditions noted are these: wild type FGFR2 0.06 nM, 100 μM ATP, 80 minutes at room temperature; class symbols.
A word on the IC50: it is the concentration that inhibits the measured activity by half. As for `C=CC(=O)N1C[C@@H](n2nc(C#Cc3cc4ncn([C@@H]5CC5(F)F)c4cc3Cl)c(C(N)=O)c2NC)C[C@@H]1COC` (single isomer, unassigned) [Example 279], the IC50 was not above 100 nM. On the same count and under the same terms, the figure for `C=CC(=O)N1C[C@@H](n2nc(C#Cc3cc4ncn([C@H]5CC5(F)F)c4cc3Cl)c(C(N)=O)c2NC)C[C@@H]1COC` (single isomer, unassigned) [Example 280] is not above 100 nM. For the compound `C=CC(=O)N1C[C@@H](n2nc(C#Cc3cc4c(cc3Cl)ncn4[C@@H]3CC3(F)F)c(C(N)=O)c2NC)C[C@@H]1COC` (single isomer, unassigned) [Example 288], the 50% inhibitory concentration (IC50) was not above 100 nM. On the same count and under the same terms, next, `C=CC(=O)N1C[C@@H](n2nc(C#Cc3ccc4cnoc4c3)c(C(N)=O)c2NC)CC1COC` (stereo in doubt) [Example 26, 1-((3S,5S)-1-acryloyl-5-(methoxymethyl)pyrrolidin-3-yl)-3-(benzo[d]isoxazol-6-ylethynyl)-5-(methylamino)-1H-pyrazole-4-carboxamide]: 100 to 1000 nM.

Consider `C=CC(=O)N1C[C@@H](n2nc(C#Cc3c(F)cc4c(ncn4CC(F)(F)F)c3F)c(C(N)=O)c2NC)CC1COC` (stereo in doubt) [Example 34, 1-((3S,5S)-1-acryloyl-5-(methoxymethyl)pyrrolidin-3-yl)-3-((4,6-difluoro-1-(2,2,2-trifluoroethyl)-1H-benzo[d]imidazol-5-yl)ethynyl)-5-(methylamino)-1H-pyrazole-4-carboxamide], for which the IC50 was not above 100 nM. Still for that read-out and setting: next, `C=CC(=O)N1C[C@@H](n2nc(C#Cc3c(F)cc4c(ncn4C4CC4)c3F)c(C(N)=O)c2NC)CC1C` (stereo in doubt) [Example 159, 3-[2-(1-Cyclopropyl-4,6-difluoro-1,3-benzodiazol-5-yl)ethynyl]-1-[(3S,5R)-5-methyl-1-(prop-2-enoyl)pyrrolidin-3-yl]-5-(methylamino)pyrazole-4-carboxamide]: not above 100 nM; `C#CC(=O)N1CC[C@H](n2nc(C#Cc3cc4ncn(C5CC5)c4cc3F)c(C(N)=O)c2NC)C1` (stereo in doubt) [Example 188, 3-[2-(1-Cyclopropyl-6-fluoro-1,3-benzodiazol-5-yl)ethynyl]-5 (methylamino)-1-[1-(prop-2-ynoyl)pyrrolidin-3-yl]pyrazole-4-carboxamide]: not above 100 nM. Turning to `C=CC(=O)N1CC[C@H](n2nc(C#Cc3ccc4nc(C)[nH]c4c3)c(C(N)=O)c2NC)C1` [Example 2, (S)-1-(1-acryloylpyrrolidin-3-yl)-3-((2-methyl-1H-benzo[d]imidazol-6-yl)ethynyl)-5-(methylamino)-1H-pyrazole-4-carboxamide], the IC50 is not above 100 nM. For the compound `C=CC(=O)N1C[C@@H](n2nc(C#Cc3ccc4c(c3)nc(C)n4CC)c(C(N)=O)c2NC)C[C@@H]1COC` [Example 3, 3-[2-(1-ethyl-2-methyl-1,3-benzodiazol-5-yl)ethynyl]-1-[(3S,5R)-5-(methoxymethyl)-1-(prop-2-enoyl)pyrrolidin-3-yl]-5-(methylamino)pyrazole-4-carboxamide], the IC50 is not above 100 nM. The same measure, in the same setting: the figure for `C=CC(=O)N1C[C@@H](n2nc(C#Cc3ccc4c(cnn4C)c3)c(C(N)=O)c2NC)C[C@@H]1COC` [Example 8] is not above 100 nM.

For `C=CC(=O)N1C[C@@H](n2nc(C#Cc3ccc4nn(C)cc4c3)c(C(N)=O)c2NC)C[C@@H]1COC` [Example 9, 1-((3S,5R)-1-acryloyl-5-(methoxymethyl)pyrrolidin-3-yl)-3-((2-methyl-2H-indazol-5-yl)ethynyl)-5-(methylamino)-1H-pyrazole-4-carboxamide], the IC50 is 100 to 1000 nM.

For `C=CC(=O)N1C[C@@H](n2nc(C#Cc3ccc4c(c3)nc(C(F)(F)F)n4C)c(C(N)=O)c2NC)C[C@@H]1COC` [Example 10], the IC50 was not above 100 nM.

The same assay, now with this note: wild type FGFR2 0.06 nM, 100 μM ATP, 80 minutes at room temperature; given as numeric bound.
Take `C=CC(=O)N1C[C@@H](n2nc(C#Cc3cc4c(cc3Cl)ncn4[C@H]3CC3(F)F)c(C(N)=O)c2NC)C[C@@H]1COC` (single isomer, unassigned) [Example 289]: the half-maximal inhibitory concentration (IC50) is more than 500 nM.
